{
  "source": "paper PMC7648750",
  "about": "“In vitro and in vivo BNCT investigations using a carborane containing sulfonamide targeting CAIX epitopes on malignant pleural mesothelioma and breast cancer cells” (Scientific Reports, 2020)",
  "key": {"MCF7 cells [1]": {"tested_on": "MCF7 cells", "assay": "Proliferation assay of cells surviving irradiation", "type": "cell-based, human", "details": "MCF7, 72 µM CA-SF before neutron irradiation", "method": "(§1) 75 flasks of MCF7 (4 flasks), ZL34 (4 flasks) and AB22 (4 flasks) were seeded at a density of 1.8 × 10^6 cells, 1.2 × 10^6 cells and 5.5 × 10^5 cells, respectively. 24 h later for MCF7 and ZL34 and 72 h later for AB22, 2 flasks of each cell lines were incubated for 24 h in the presence of 72 µM, 187.5 µM and 130 µM of CA-SF, respectively. After the incubation, cells were washed with PBS and their medium was renewed. Two flasks of MCF7, ZL34 and AB22 cells incubated with CA-SF and two flasks containing non-treated control cells were irradiated for 15′ at 30 kW reactor power in the thermal column of the TRIGA Mark II reactor at the University of Pavia, Italy. […]\n(§2) Then, around 7 × 10^5 MCF7, 3.5 × 10^5 ZL34 and 1 × 10^5 AB22 cells from each differently treated flask were seeded in 10 cm diameter culture dishes. […] Then, cells were sonicated for 30 s at 30% power in ice and the total cell protein concentration (that is proportional to the number of cells) from cell lysates was determined by the Bradford method, using bovine serum albumin as a standard. The Cell Growth Rate was calculated as follows: Number of cellsti-Number of cellst0/Number of cellst0×100 for which Number of cells (ti) is the number of cells measured at the various time intervals and the number of cells (t0) is the number of cells at the starting point (t = 0) of the proliferation assay."}, "ZL34 cells": {"tested_on": "ZL34 cells", "assay": "Proliferation assay of cells surviving irradiation", "type": "cell-based, human", "details": "ZL34, 187.5 µM CA-SF before neutron irradiation", "method": "as §1, §2"}, "[2]": {"assay": "Solubility in aqueous media", "type": "physicochemical"}, "[3]": {"assay": "Boron biodistribution in AB22 tumour bearing mice (ICP-MS)", "type": "in vivo, Balb/c mice", "details": "37.5 mg/kg of boron, ± SD; for Brain [boron]: with β-cyclodextrin oligomer", "method": "Adult male Balb/c mice were maintained under specific pathogen-free conditions at the animal facility of the Department of Molecular Biotechnology and Health Sciences (Turin University, Italy). All animal experiments have been carried out in accordance with the EU Directive 2010/63/EU for animal experiments. The animal treatment protocol was approved by the Italian Ministry of Health (Authorization Number 1012/2015-PR). AB22 cells were cultured as described above and tumours were generated by the injection of 4.8 × 10^6 AB22 cells in a final volume of 0.15 ml GFNR Matrigel (CORNING Ref. 354234): PBS (1:1 v/v) subcutaneously in the neck of the mouse. One week after the AB22-cell injection, the mice developed solid tumours of approximately 50 ± 10 mm^3 in volume. At this time, mice (n = 6) received an intravenous injection of CA-SF (88 mg/kg corresponding to 37.5 mg/kg of ^10B). Before the injection, CA-SF in DMSO was mixed in the presence of poly β-cyclodextrin (MW = 15,000 Da) previously dissolved in 0.9% solution of NaCl. The used CA-SF molar ratio with respect to β-cyclodextrin oligomer was 10:1. The DMSO concentration in 0.9% NaCl was kept under 5%. The mice were then sacrificed at 6 h (n = 3) and at 16 h (n = 3). The boron content of mice plasma, tumours, organs (Liver, Lung, Brain, Spleen, Kidneys) and healthy tissues (Muscle) was determined by ICP-MS technique (see below).\n(§3) Boron content from cell samples, mice organs, plasma and tumours were determined using inductively coupled plasma mass spectrometry (ICP-MS) (Element-2; Thermo-Finnigan, Rodano (MI), Italy).\nThe mice blood was collected and centrifuged at 2500 rpm for 10 min to split the plasma part over whole blood; the tumours, organs and healthy tissues were explanted. All was weighted, dissolved in HNO3 (70%) and digested. Both natural boron abundant and ^10B enriched standard solution was analyzed during sample runs in order to check for variations in the systematic bias. The calibration curve was obtained using four boron absorption standard solutions (Sigma-Aldrich) in the range 0.1–0.004 μg/mL."}, "MCF7 cells [4]": {"tested_on": "MCF7 cells", "assay": "BNCT in vitro: viable cells 24 h after neutron irradiation (trypan blue)", "type": "cell-based, human", "details": "MCF7, 72 µM 24 h, thermal neutrons 15 min 30 kW, 24 h after irradiation", "method": "75 flasks of MCF7 (4 flasks), ZL34 (4 flasks) and AB22 (4 flasks) were seeded at a density of 1.8 × 10^6 cells, 1.2 × 10^6 cells and 5.5 × 10^5 cells, respectively. 24 h later for MCF7 and ZL34 and 72 h later for AB22, 2 flasks of each cell lines were incubated for 24 h in the presence of 72 µM, 187.5 µM and 130 µM of CA-SF, respectively. After the incubation, cells were washed with PBS and their medium was renewed. Two flasks of MCF7, ZL34 and AB22 cells incubated with CA-SF and two flasks containing non-treated control cells were irradiated for 15′ at 30 kW reactor power in the thermal column of the TRIGA Mark II reactor at the University of Pavia, Italy. At the end of the irradiation, the medium was removed, it was replaced with fresh medium and flasks were placed at 37 °C in a humidified atmosphere of 5% CO2.\nThe proliferation assay was carried out following the same procedure reported in reference 32. The day after irradiation cells were detached with 0.05% trypsin and 0.02% EDTA and the trypan blue exclusion test of cell viability was performed. Cell viability was reported as percentage of cells observed in treated a/o irradiated samples relative to that observed in control cells."}, "AB22 cells [5]": {"tested_on": "AB22 cells", "assay": "Cell uptake of boron (ICP-MS)", "type": "cell-based, mouse", "details": "AB22, 130 µM CA-SF in culture medium, 24 h, 37 °C", "method": "For the in vitro uptake experiments, 6 × 10^5 MCF7, 4.5 × 10^5 ZL34 and 2 × 10^5 AB22 were seeded in 6 cm of diameter dishes. After 24 h for MCF7 and ZL34 and after 72 h for AB22, the cells were incubated for 24 h with increasing concentration of CA-SF. All the incubations were performed in condition of normoxia at 37 °C, 5% CO2. At the end of the incubation, cells were washed three times with 3 ml ice-cold PBS and detached with 0.05% trypsin and 0.02% EDTA. Finally, all cell samples were transferred in falcon tubes and sonicated at 30% of power for 30 s in ice. The boron content of each cell sample lysates was determined by ICP-MS technique (see below). The milligrams of proteins, proportional to the number of cells, of each cell sample lysate, was evaluated by the Bradford assay (Biorad) using bovine serum albumin as a standard.\nas §3\nSample digestion was performed using a high performance Microwave Digestion System (ETHOS UP Milestone, Bergamo, Italy) after the addition of concentrated HNO3 (70%) to cell lysates (1:1), in a final volume of 0.4 mL. […] The amounts of boron µg /g tissue were thus calculated considering that 1 g of tissue contains 1 × 10^9 cells."}, "AB22 cells [6]": {"tested_on": "AB22 cells", "assay": "Proliferation assay of cells surviving irradiation", "type": "cell-based, mouse", "details": "AB22, 130 µM CA-SF before neutron irradiation", "method": "as §1, §2"}},
  "data": [
    {"substance": "1-Sulfonamidomethyl-o-carborane [CA-SF]", "values": [
      {"measurement": "proliferation rate of cells surviving to irradiation", "setting": "MCF7 cells [1]", "result": "marked inhibition of proliferation"},
      {"measurement": "proliferation rate of cells surviving to irradiation", "setting": "ZL34 cells", "result": "marked inhibition of proliferation"},
      {"measurement": "solubility in aqueous media", "setting": "[2]", "result": "low"},
      {"measurement": "Brain [boron]", "setting": "[3]; 6 h post i.v.", "result": "30.7 ± 11.2", "unit": "µg/g"},
      {"measurement": "Kidney [boron]", "setting": "[3]; 6 h post i.v.", "result": "48.2 ± 15.3", "unit": "µg/g"},
      {"measurement": "Liver [boron]", "setting": "[3]; 6 h post i.v.", "result": "64.5 ± 1.2", "unit": "µg/g"},
      {"measurement": "Lungs [boron]", "setting": "[3]; 6 h post i.v.", "result": "37.2 ± 11.2", "unit": "µg/g"},
      {"measurement": "Muscle [boron]", "setting": "[3]; 6 h post i.v.", "result": "13.2 ± 2.5", "unit": "µg/g"},
      {"measurement": "Plasma [boron]", "setting": "[3]; 6 h post i.v.", "result": "20.4 ± 5.4", "unit": "µg/g"},
      {"measurement": "Spleen [boron]", "setting": "[3]; 6 h post i.v.", "result": "18.5 ± 5.8", "unit": "µg/g"},
      {"measurement": "Tumour [boron]", "setting": "[3]; 6 h post i.v.", "result": "13.8 ± 2.4", "unit": "µg/g"},
      {"measurement": "Brain [boron]", "setting": "[3]; 16 h post i.v.", "result": "7.3 ± 1.1", "unit": "µg/g"},
      {"measurement": "Kidney [boron]", "setting": "[3]; 16 h post i.v.", "result": "13.7 ± 1.9", "unit": "µg/g"},
      {"measurement": "Liver [boron]", "setting": "[3]; 16 h post i.v.", "result": "22.7 ± 3.5", "unit": "µg/g"},
      {"measurement": "Lungs [boron]", "setting": "[3]; 16 h post i.v.", "result": "12.1 ± 2.2", "unit": "µg/g"},
      {"measurement": "Muscle [boron]", "setting": "[3]; 16 h post i.v.", "result": "4.4 ± 1.2", "unit": "µg/g"},
      {"measurement": "Plasma [boron]", "setting": "[3]; 16 h post i.v.", "result": "11.1 ± 1.3", "unit": "µg/g"},
      {"measurement": "Spleen [boron]", "setting": "[3]; 16 h post i.v.", "result": "6.2 ± 1.5", "unit": "µg/g"},
      {"measurement": "Tumour [boron]", "setting": "[3]; 16 h post i.v.", "result": "7.4 ± 2.1", "unit": "µg/g"},
      {"measurement": "viability of CA-SF treated and irradiated cells vs CA-SF treated cells", "setting": "MCF7 cells [4]", "result": "significantly reduced"},
      {"measurement": "boron loaded into the target cells", "setting": "AB22 cells [5]", "result": 160, "unit": "µg/g"},
      {"measurement": "proliferation rate of cells surviving to irradiation", "setting": "AB22 cells [6]", "result": "marked inhibition of proliferation"}
    ]}
  ]
}
